Results on three compounds are retold here after US10668283B2, “Brain stimulation tool configuration” (Elminda Ltd., priority 2014, dated 2020).

What all share (type): in vivo, human
In one assay the test system is groups of subjects. The assay can be described thus: Group BNA patterns from EEG data recorded during a working memory test (cue/probe face matching). The following applies: memorization and retrieval, versus placebo. The source says: FIGS. 10A-H show group BNA patterns constructed from EEG data recorded from two groups of subjects during a working memory test. The black dots in FIGS. 10A-H show the locations of the EEG electrodes, and the color codes in these BNA patterns is the same as defined above. During the test, each subject of the group was asked to memorize an image of a human face (referred to as the “cue”). Two seconds later, the subject was again presented with an image of a human face (referred to as the “probe”) and was asked to determine whether the probe matches the cue.
The BNA patterns of the first group are shown in FIGS. 10A-D. FIGS. 10A and 10B are group BNA patterns constructed following treatment with a placebo (referred to below as placebo A), and FIGS. 10C and 10D are group BNA patterns constructed following treatment with a Scopolamine. The BNA patterns of the second group are shown in FIGS. 10E-H, where FIGS. 10E and 10F are group BNA patterns constructed following treatment with a placebo (referred to below as placebo B), and FIGS. 10G and 10H are BNA patterns constructed following treatment with a Ketamine.
The BNA pattern of FIGS. 10A, 10C, 10E and 10G were constructed from the data acquired during the time at which the cue was presented and are recognized by the present inventor as containing information pertaining to the memorization process in the brain (also known in the literature as “encoding”). The BNA patterns of FIGS. 10B, 10D, 10F and 10H were constructed from the data acquired during the time at which the probe was presented, and are recognized by the present inventor as containing information pertaining to the retrieval process in the brain. It is noted that the BNA patterns of FIGS. 10A-H describe differentiating activity networks. Thus, for example, the BNA pattern of FIG. 10A describes the brain activity during cue that most differentiated between placebo A and Scopolamine, and the BNA pattern of […] describes the brain activity during cue that most differentiated between placebo B and Ketamine.

The test system of the next assay is ADHD subject. The assay can be described thus: BNA pattern similarity from EEG data of ADHD subjects before and after MPH treatment. The source says: The BNA patterns shown in FIGS. 6A-D are associated subject-specific BNA patterns constructed from EEG data recorded from a particular ADHD subject. The black dots in FIGS. 6A-D show the locations of the EEG electrodes. The color codes in these BNA patterns are the same as defined above. The subject-specific BNA patterns shown in FIGS. 6A-B describe the association of the ADHD subject to a group of untreated ADHD subjects, and the BNA patterns shown in FIGS. 6C-D describe the association of the ADHD subject to a group of ADHD subjects all treated with methylphenidate (MPH). The subject-specific BNA patterns shown in FIGS. 6A and 6C are based on EEG data recorded from the ADHD subject before any treatment, and subject-specific BNA patterns shown in FIGS. 6B and 6D are based on EEG data recorded from the ADHD subject following a treatment with MPH.
The baseline annotated BNA pattern constructed from the group of untreated ADHD subjects, and the baseline annotated BNA pattern constructed from the same group of subjects, but following treatment with MPH are shown in FIGS. 6E and 6F, respectively.
A BNA pattern similarity was calculated for each of the subject-specific BNA patterns shown in FIGS. 6A-D. The calculated similarity corresponding to the BNA pattern of FIG. 6A is 0.73, the calculated similarity corresponding to the BNA pattern of FIG. 6B is 0.19, the calculated similarity corresponding to the BNA pattern of FIG. 6C is 0.56, and the calculated similarity corresponding to the BNA pattern of FIG. 6D is 0.6.
The BNA patterns shown in FIGS. 7A-D were constructed from EEG data recorded from a different ADHD subject, which was also treated with MPH according to the same protocol as described above with respect to the responder subject of FIGS. 6A-D. The black dots in FIGS. 7A-D show the locations of the EEG electrodes, and the color codes in these BNA patterns is the same as defined above. Thus, the subject-specific BNA patterns shown in FIGS. 7A-B describe the association of the ADHD subject to a group of untreated ADHD subjects, and the BNA patterns shown in FIGS. 7C-D describe the association of the ADHD subject to a group of ADHD subjects all treated with methylphenidate (MPH). The subject-specific BNA patterns shown in FIGS. 7A and 7C are based on EEG data recorded from the ADHD subject before any treatment, and subject-specific BNA patterns shown in FIGS. 7B and 7D are based on EEG data recorded from the ADHD subject following a treatment with MPH.

Assay [1] has as its system healthy volunteer subjects. Kind of assay: BNA pattern similarity from EEG data of healthy volunteers during an attention-related oddball task after scopolamine; clinical behavioral endpoint. The following applies: for BNA pattern similarity to baseline BNA pattern of healthy subjects following placebo: following scopolamine. An excerpt:
FIGS. 8A-D show associated subject-specific BNA patterns constructed from EEG data recorded from two healthy volunteer subjects. The black dots in FIGS. 8A-D show the locations of the EEG electrodes, and the color codes in these BNA patterns are the same as defined above. The subject-specific BNA patterns shown in FIGS. 8A-D describe the association of the subjects to a group of healthy subjects following treatment with a placebo drug and while performing an attention task related oddball task.
FIGS. 8A and 8C are subject-specific BNA patterns constructed from EEG data collected from a first subject (FIG. 8A) and a second subject (FIG. 8C) following treatment with a placebo, and FIGS. 8B and 8D are subject-specific BNA patterns constructed from EEG data collected from the first subject (FIG. 8B) and the second subject (FIG. 8D) following treatment with a scopolamine drug. Scopolamine is an anticholinergic drug with inhibitory effect on M2-cholinergic receptors of excited type. It has an inhibitory effect on the cerebral cortex, typically inducing slight-anesthetic effect.
A BNA pattern similarity was calculated for each of the subject-specific BNA patterns shown in FIGS. 8A-D. The calculated similarities are 0.937, 0.079, 1.0 and 0.94, respectively. It is recognized by the present inventors that these similarity values indicate that the responsivity to scopolamine is high for the first subject (FIGS. 8A and 8B) and low for the second subject (FIGS. 8C and 8D).

The subject of the next assay is healthy volunteers. The assay can be described thus: Scopolamine induced cognitive impairment model: ΔBNA scores in Auditory Oddball Task against SEM of the normative database. Conditions: scopolamine 0.4 mg, Novel stimulus, connectivity score; only 2 patients receiving placebo. An excerpt:
The task chosen for this study was the Auditory Oddball Task, but other tasks are not excluded from the scope of the present invention. FIG. 21 is a schematic representation of an Auditory Oddball Task used in this study. The task included 600 repetitive 1000 ms auditory stimulations of which 80% were 2000 Hz stimuli (Frequent—blue circles), 10% were 1000 Hz stimuli requiring a motor response (Target—red circles) and 10% were rare non-targets composed of various sounds (Novel—yellow star). The stimuli were separated by 1500 ms intervals. The sound was delivered through a headset at a sound pressure level of 70 dB.
A pharmacological model study included 13 healthy volunteers of both genders, Aged 18-45. The volunteers were subjected to 3 Consecutive BNA sessions were, 1 week apart. A first session was used as a baseline, one of the two other sessions included administration of scopolamine (0.4 mg), and the other of the two other sessions included administration of placebo. The second and third sessions were at random order, double blind. ΔBNA Score values (Baseline—Placebo and Baseline—Drug) were evaluated against SEM values.
Shown are Plots of the ΔBNA (Baseline—treatment) connectivity score values for the Novel response. Each symbol is a single subject, tested once following Drug and once following Placebo. […]

Consider `CNC1(c2ccccc2Cl)CCCCC1=O` (stereo not drawn) [ketamine], for which, in the assay on groups of subjects, the “effect on central and frontal activation in group BNA pattern” value is “increased central and frontal activation”; the “effect on fronto-parietal part / connectivity of group BNA pattern” value is “No significant change in the fronto-parietal part of the BNA pattern”; the “effect on right lateralization in group BNA pattern” value is on record as “decreased right lateralization”.
Consider `COC(=O)C(c1ccccc1)C1CCCCN1` (stereo not drawn) [MPH, methylphenidate], for which the “BNA pattern similarity to the group of untreated ADHD subjects” value in the assay on ADHD subject (different ADHD subject (FIG. 7B), following treatment with MPH, 0 before treatment) turned out to be 0. The “BNA pattern similarity to the group of ADHD subjects treated with MPH” value in the assay with ADHD subject (different ADHD subject (FIG. 7D), following treatment with MPH, 0.06 before treatment) is reported as 0. The “responsiveness of the subject to the treatment as indicated by similarity values” with ADHD subject (different ADHD subject (FIGS. 7A-D)) is listed as “not responsive to the treatment”; with ADHD subject (first ADHD subject (FIGS. 6A-D)), “responsive to the treatment”. Besides, the “BNA pattern similarity to the baseline BNA pattern for untreated ADHD group” value with ADHD subject (first ADHD subject (FIG. 6B), following single dose treatment with MPH, 0.73 before treatment) was found to be 0.19. The “BNA pattern similarity to the baseline BNA pattern for the treated ADHD group” value in the assay on ADHD subject (first ADHD subject (FIG. 6D), following single dose treatment with MPH, 0.56 before treatment) was found to be 0.6.
On to `CN1[C@@H]2C[C@@H](OC(=O)[C@H](CO)c3ccccc3)C[C@H]1[C@@H]1O[C@@H]12` [scopolamine], for which the “BNA pattern similarity to baseline BNA pattern of healthy subjects following placebo” value in assay [1] (first subject (FIG. 8B), 0.937 following placebo) came out at 0.079; in assay [1] (second subject (FIG. 8D), 1.0 following placebo) it was 0.94. For the same compound, the “responsivity to scopolamine as indicated by similarity values” is given as “high” in assay [1] (first subject (FIGS. 8A and 8B)); “low” in assay [1] (second subject (FIGS. 8C and 8D)). Moreover, in assay [1] (first subject, following treatment with scopolamine), the “decrease in behavioral endpoint (clinical observations)” value is reported as 70%. Further, the “change in behavioral endpoint (clinical observations)” value in assay [1] (second subject, following treatment with scopolamine) was “no change in behavioral endpoint”. Also, the “effect on central and frontal activation in group BNA pattern” value in the assay on groups of subjects was “extensive compensatory central and frontal activation”. Also, the “effect on fronto-parietal part / connectivity of group BNA pattern” value with groups of subjects was “low connectivity between frontal and parietal regions”. The “patients with post-treatment BNA scores more than 2 SEM lower than the baseline score” value in the assay on healthy volunteers is listed as “Eight out of 13”.
